Results from PubChem BioAssay (NCI).
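How tested: cells in 96-well plates exposed to compound for 48 hours at five concentrations. GI50: concentration for 50% inhibition of growth. TGI marks complete inhibition of growth.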

Experiments:
Experiment in all cases: inhibition of tumour cell growth, NCI panel, 48 h
A549 NSCLC = tested on: A549 NSCLC
HCT-15 colon = tested on: HCT-15 colon
HOP-62 NSCLC = tested on: HOP-62 NSCLC
KM12 colon = tested on: KM12 colon
MOLT-4 leukemia = tested on: MOLT-4 leukemia
NCI-H460 lung = tested on: NCI-H460 lung
SF-539 CNS = tested on: SF-539 CNS
SK-OV-3 ovarian = tested on: SK-OV-3 ovarian
SW-620 colon = tested on: SW-620 colon
TK-10 renal = tested on: TK-10 renal

COc1ccc(/C=C2/CCCC/C2=N/O)cc1
TGI (A549 NSCLC): > 100 µM | TGI (HCT-15 colon): > 100 µM | TGI (HOP-62 NSCLC): > 100 µM | TGI (KM12 colon): > 100 µM | TGI (MOLT-4 leukemia): > 100 µM | TGI (NCI-H460 lung): > 100 µM | TGI (SF-539 CNS): > 100 µM | TGI (SK-OV-3 ovarian): > 100 µM | TGI (SW-620 colon): > 100 µM | TGI (TK-10 renal): > 100 µM

Nc1cccc2c1C(=O)N(C1CCC(=O)NC1=O)C2=O (stereo not given)
GI50 (A549 NSCLC): > 100 µM | TGI (A549 NSCLC): > 100 µM | GI50 (HCT-15 colon): > 100 µM | TGI (HCT-15 colon): > 100 µM | GI50 (HOP-62 NSCLC): > 100 µM | TGI (HOP-62 NSCLC): > 100 µM | GI50 (KM12 colon): > 100 µM | TGI (KM12 colon): > 100 µM | GI50 (MOLT-4 leukemia): > 100 µM | TGI (MOLT-4 leukemia): > 100 µM | GI50 (NCI-H460 lung): > 100 µM | TGI (NCI-H460 lung): > 100 µM | GI50 (SF-539 CNS): > 100 µM | TGI (SF-539 CNS): > 100 µM | GI50 (SK-OV-3 ovarian): > 100 µM | TGI (SK-OV-3 ovarian): > 100 µM | GI50 (SW-620 colon): > 100 µM | TGI (SW-620 colon): > 100 µM | GI50 (TK-10 renal): > 100 µM | TGI (TK-10 renal): > 100 µM

Cn1cc(-c2ccc(=O)n(Cc3cccc(-c4ncc(OCCN5CCOCC5)cn4)c3)n2)cn1
GI50 (A549 NSCLC): 71.7 µM | TGI (A549 NSCLC): > 100 µM | GI50 (HCT-15 colon): > 100 µM | TGI (HCT-15 colon): > 100 µM | GI50 (HOP-62 NSCLC): > 62.7 µM | TGI (HOP-62 NSCLC): > 100 µM | GI50 (KM12 colon): 52.2 µM | TGI (KM12 colon): > 100 µM | GI50 (MOLT-4 leukemia): 36.4 µM | TGI (MOLT-4 leukemia): > 100 µM | GI50 (NCI-H460 lung): > 100 µM | TGI (NCI-H460 lung): > 100 µM | GI50 (SF-539 CNS): > 100 µM | TGI (SF-539 CNS): > 100 µM | GI50 (SK-OV-3 ovarian): > 100 µM | TGI (SK-OV-3 ovarian): > 100 µM | GI50 (SW-620 colon): > 100 µM | TGI (SW-620 colon): > 100 µM | GI50 (TK-10 renal): 99 µM | TGI (TK-10 renal): > 100 µM

COc1cccc(NC(=O)c2sc3nc4c(cc3c2N)CCCC4)c1
GI50 (A549 NSCLC): 0.58 µM | TGI (A549 NSCLC): > 100 µM | GI50 (HCT-15 colon): 0.387 µM | TGI (HCT-15 colon): > 100 µM | GI50 (HOP-62 NSCLC): 0.59 µM | TGI (HOP-62 NSCLC): 18.2 µM | GI50 (KM12 colon): 0.414 µM | TGI (KM12 colon): > 100 µM | GI50 (MOLT-4 leukemia): 0.765 µM | TGI (MOLT-4 leukemia): > 100 µM | GI50 (NCI-H460 lung): 0.474 µM | TGI (NCI-H460 lung): > 100 µM | GI50 (SF-539 CNS): 0.368 µM | TGI (SF-539 CNS): 12.8 µM | GI50 (SK-OV-3 ovarian): 0.473 µM | TGI (SK-OV-3 ovarian): 29.4 µM | GI50 (SW-620 colon): 0.45 µM | TGI (SW-620 colon): > 100 µM | GI50 (TK-10 renal): 2.97 µM | TGI (TK-10 renal): 34 µM

CCCCCCCCCCCCc1ccc(C(=O)/C=C/C(=O)O)cc1
GI50 (A549 NSCLC): 13.8 µM | TGI (A549 NSCLC): 30.7 µM | GI50 (HCT-15 colon): 1.71 µM | TGI (HCT-15 colon): 3.45 µM | GI50 (HOP-62 NSCLC): 14 µM | TGI (HOP-62 NSCLC): 29.9 µM | GI50 (KM12 colon): 11.7 µM | TGI (KM12 colon): 25.9 µM | GI50 (MOLT-4 leukemia): 0.99 µM | TGI (MOLT-4 leukemia): 5.11 µM | GI50 (NCI-H460 lung): 10.8 µM | TGI (NCI-H460 lung): 27.1 µM | GI50 (SF-539 CNS): 1.73 µM | TGI (SF-539 CNS): 3.33 µM | GI50 (SK-OV-3 ovarian): 16.2 µM | TGI (SK-OV-3 ovarian): 30.4 µM | GI50 (SW-620 colon): 1.43 µM | TGI (SW-620 colon): 3.67 µM | GI50 (TK-10 renal): 1.82 µM | TGI (TK-10 renal): 3.64 µM

NNC(=O)/C(=C/c1cccc([N+](=O)[O-])c1)NC(=O)c1ccccc1
TGI (A549 NSCLC): > 100 µM | TGI (HCT-15 colon): > 100 µM | TGI (HOP-62 NSCLC): > 100 µM | TGI (KM12 colon): > 100 µM | TGI (MOLT-4 leukemia): > 100 µM | TGI (NCI-H460 lung): > 100 µM | TGI (SF-539 CNS): > 100 µM | TGI (SK-OV-3 ovarian): > 100 µM | TGI (SW-620 colon): > 100 µM | TGI (TK-10 renal): > 100 µM

NC(N)=NS(=O)(=O)c1ccc(NC(=O)c2cccc3c(Nc4ccc(S(=O)(=O)N=C(N)N)cc4)c4ccc(Cl)cc4nc23)cc1
TGI (A549 NSCLC): > 100 µM | TGI (HCT-15 colon): > 100 µM | TGI (HOP-62 NSCLC): > 100 µM | TGI (KM12 colon): > 100 µM | TGI (MOLT-4 leukemia): > 100 µM | TGI (NCI-H460 lung): > 100 µM | TGI (SF-539 CNS): > 100 µM | TGI (SK-OV-3 ovarian): > 100 µM | TGI (SW-620 colon): > 100 µM | TGI (TK-10 renal): > 100 µM
